Active and inactive are the calls of the source. The calls are words filed in the database; no cut-off is given here.
Tests used:
[1] = tested on: HeLa; conditions: Homo sapiens, dose 100.0 nM, time 15.0 min;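 further: HDAC inhibition in HeLa cells, read on a microplate reader using an acetylated peptide AMC substrate, expressed relative to control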
[2] = tested on: MDCK; test: Upregulation of acetylation of alpha tubulin level in MDCK cells incubated for 24 hrs by Western blot analysis; assay type: functional, cell-based; conditions: Canis lupus familiaris, dose 0.3-1 µM
[3] = tested on: MDCK; test: Antiproliferative activity against MDCK cells at 0.3 to 1 uM by Hoechst 33342 and EdU staining based analysis; assay type: functional, cell-based; conditions: Canis lupus familiaris, dose 0.3-1 µM
[4] = tested on: MDCK; test: Inhibition of colony formation in MDCK cells measured after 8 days by crystal violet staining based analysis; assay type: functional, cell-based; conditions: Canis lupus familiaris, dose 0.3-1 µM, time 8.0 day
[5] = tested on: MDCK; test: Cytotoxicity against MDCK cells at 0.3 to 1 uM by CCK-8 assay; assay type: toxicity, cell-based, Canis lupus familiaris; conditions: dog, dose 0.3-1 µM
[6] = tested on: MDCK; test: Inhibition of cystogenesis in PKD1 knockout ADPKD MDCK cells assessed as inhibition of cyst formation at 0.3 to 1 uM; assay type: functional, cell-based; conditions: Canis lupus familiaris, dose 0.3-1 µM, time 4-10 day, TDE = time-dependent effect
[7] = tested on: Kidney; test: Ex vivo inhibition of renal cystogenesis in wild type C57BL/6 mouse kidney assessed as suppression of 8-Br-cAMP-induced cyst development at 1 uM treated for 6 days by inverted microscopic analysis; assay type: functional, tissue-based; conditions: time 6.0 day
[8] = tested on: Mus musculus; test: Inhibition of renal cystogenesis in PKD1 knockout ADPKD C57BL/6 mouse assessed as reduction in kidney size at 1 mg/kg, sc administered once daily for 1 week; assay type: functional, organism-based; conditions: time 1.0 weeks
[9] = tested on: Mus musculus; test: Inhibition of renal cystogenesis in PKD1 knockout ADPKD C57BL/6 mouse assessed as reduction kidney to body weight ratio index at 1 mg/kg, sc administered once daily for 1 week (19.5 +/-0.5%); assay type: functional; design: scale not given: the % may be the effect or the level left; conditions: time 1 weeks
[10] = tested on: Mus musculus; test: Inhibition of renal cystogenesis in PKD1 knockout ADPKD C57BL/6 mouse assessed as decrease in kidney size at 1 mg/kg, sc administered once daily for 1 week by H and E staining based analysis; assay type: functional, organism-based; conditions: time 1.0 weeks
[11] = tested on: Mus musculus; test: Inhibition of renal cystogenesis in PKD1 knockout ADPKD C57BL/6 mouse assessed as reduction in renal cyst formation at 1 mg/kg, sc administered once daily for 1 week by H and E staining based analysis; assay type: functional, organism-based; conditions: time 1.0 weeks
[12] = tested on: Mus musculus; test: Inhibition of renal cystogenesis in PKD1 knockout ADPKD C57BL/6 mouse assessed as increase in renal parenchyma at 1 mg/kg, sc administered once daily for 1 week by H and E staining based analysis; assay type: functional, organism-based; conditions: time 1.0 weeks
[13] = Half life in C57BL/6 mouse at 1 mg/kg, sc by LC-MS/MS analysis; assay type: ADME, organism-based; conditions: in vivo
[14] = Terminal elimination half life in C57BL/6 mouse at 1 mg/kg, sc by LC-MS/MS analysis; assay type: ADME, organism-based; conditions: in vivo, read-out: LambdaZ (converted)
[15] = Cmax in C57BL/6 mouse at 1 mg/kg, sc by LC-MS/MS analysis; assay type: ADME, organism-based; conditions: in vivo
[16] = Tmax in C57BL/6 mouse at 1 mg/kg, sc by LC-MS/MS analysis; assay type: ADME, organism-based; conditions: in vivo
[17] = AUC (0 to t) in C57BL/6 mouse at 1 mg/kg, sc by LC-MS/MS analysis; assay type: ADME, organism-based; conditions: in vivo
[18] = AUC (0 to infinity) in C57BL/6 mouse at 1 mg/kg, sc by LC-MS/MS analysis; assay type: ADME, organism-based; conditions: in vivo

Row | Structure (SMILES) | inhibition [1] | further results
1 | O=C(CCCCCCOc1ccc(-c2nc3ccccc3s2)cc1)NO | 84.2% | –
2 | O=C(CCCCCCOc1ccc(-c2nc3ccc(Cl)cc3s2)cc1)NO | 21.7% | –
3 | COc1cc(-c2nc3ccccc3s2)ccc1OCCCCCCC(=O)NO | 74.2% | –
4 | O=C(CCCCOc1cccc(-c2nc3ccccc3s2)c1)NO | 45.7% | –
5 | O=C(COc1ccc(-c2nc3ccccc3s2)cc1)NO | 34.8% | –
6 | O=C(CCCCCCOc1cccc(-c2nc3ccccc3s2)c1F)NO | 68.7% | –
7 | Cc1ccc2nc(-c3ccc(OCCCCCCC(=O)NO)cc3)sc2c1 | 52.3% | –
8 | COc1ccc(-c2nc3ccc(C)cc3s2)cc1OCCCCCCC(=O)NO | 67.8% | –
9 | COc1ccc(-c2nc3ccc(F)cc3s2)cc1OCCCCCCC(=O)NO | 77.3% | –
10 | COc1ccc(-c2nc3cc(Cl)ccc3s2)cc1OCCCCCCC(=O)NO | 37.2% | –
11 | COc1ccc(-c2nc3ccccc3s2)cc1OCCCCCCC(=O)NO | 88% | Activity [2]: Dose-Dependent Effect; Activity [3]: Active; inhibition [4]: Dose-Dependent Effect; Activity [5]: Non-Toxic; inhibition [6]: Tde; Activity [7]: Active; Activity [8]: Active; Activity [9]: 14.2%; Activity [10]: Active; Activity [11]: Active; Activity [12]: Active; half-life [13]: 5.75 h; k el [14]: 3.61e-05 s⁻¹; Cmax [15]: 572 ng/mL; Tmax [16]: 0.25 h; AUC(0-t) [17]: 597 ng·h/mL; AUC(0-inf) [18]: 614 ng·h/mL
12 | O=C(CCCCCOc1ccc(-c2nc3ccccc3s2)cc1)NO | 26.8% | –
13 | Cc1cc(-c2nc3ccccc3s2)ccc1OCCCCCCC(=O)NO | 39.3% | –
14 | O=C(CCCCCCOc1ccc(-c2nc3cc(Cl)ccc3s2)cc1)NO | 42.7% | –
15 | O=C(CCCCCCOc1ccc(-c2nc3ccc(F)cc3s2)cc1)NO | 61.2% | –
16 | O=C(COc1cccc(-c2nc3ccccc3s2)c1)NO | 66.5% | –
17 | O=C(CCCCOc1ccc(-c2nc3ccccc3s2)cc1)NO | 56% | –
18 | COc1cc(-c2nc3ccccc3s2)cc(OC)c1OCCCCCCC(=O)NO | 81.7% | –

Row | Structure (SMILES) | inhibition [1] | further results
19 | O=C(CCCOc1ccc(-c2nc3ccccc3s2)cc1)NO | 3.33% | –
20 | COc1ccc(-c2nc3ccc(Cl)cc3s2)cc1OCCCCCCC(=O)NO | 44.5% | –
21 | O=C(CCCOc1cccc(-c2nc3ccccc3s2)c1)NO | 41.2% | –
22 | O=C(CCCCCCCOc1cccc(-c2nc3ccccc3s2)c1)NO | 65.3% | –
23 | O=C(CCCCCCOc1cccc(-c2nc3ccccc3s2)c1)NO | 76.8% | –
24 | O=C(CCCCCCCOc1ccc(-c2nc3ccccc3s2)cc1)NO | 9.17% | –
25 | O=C(CCCCCCOc1ccc(-c2nc3ccccc3s2)c(Cl)c1)NO | 33.2% | –
26 | O=C(CCCCCCOc1cccc(-c2nc3ccccc3s2)c1Cl)NO | 62% | –
27 | CCOc1cc(-c2nc3ccccc3s2)ccc1OCCCCCCC(=O)NO | 75% | –
28 | O=C(CCCCCCOc1ccc(-c2nc3ccccc3s2)cc1Cl)NO | 18.3% | –
29 | COc1ccc2nc(-c3ccc(OCCCCCCC(=O)NO)cc3)sc2c1 | 51.7% | –
30 | O=C(CCCCCOc1cccc(-c2nc3ccccc3s2)c1)NO | 76.7% | –
31 | O=C(CCCCCCOc1ccc(-c2nc3ccccc3s2)c(F)c1)NO | 83% | –
32 | Cc1ccccc1C(=O)Nc1ccc(C(=O)N2CCCC(O)c3cc(Cl)ccc32)c(C)c1 (configuration not stated) [TOLVAPTAN] | – | Activity [9]: 15.8%
33 | O=C(CCCCCCOc1ccc(-c2nc3ccccc3s2)cc1F)NO | 46.2% | –
34 | COc1ccc(-c2nc3ccccc3s2)cc1OCCCCCCCC(=O)NO | 28.2% | –
35 | COc1ccc2nc(-c3ccc(OC)c(OCCCCCCC(=O)NO)c3)sc2c1 | 80.3% | –
